Experimental data reported in ChEMBL document CHEMBL4418493, “N-hydroxyformamide compounds and compositions comprising them for use as BMP1, TLL1 and/or TLL2 inhibitors” (2018).

Assays:
[1] = Drug metabolism in heparinized pooled human plasma at pH 7.5 assessed as formation of (3-ethoxy-5-(5-((((R)-2-((R)-1-(N-hydroxyformamido)propyl)heptanamido)methyl)carbamoyl) furan-2-yl)phenyl)phosphonic acid at 100 to 2000 ng/ml incubated up to 4 or 24 hrs by LC-MS/MS analysis; type: ADME, cell-free; details: pH 7.5, 24 h
[2] = Drug metabolism in heparinized pooled human plasma at pH 7.5 assessed as formation of (S)-2-(2-(carboxymethoxy)-4-(5-((((R)-2-((R)-1-(N-hydroxyformamido)propyl)heptanamido)methyl)carbamoyl)furan-2-yl)benzamido)succinic acid at 100 to 2000 ng/ml incubated up to 4 or 24 hrs by LC-MS/MS analysis; type: ADME, cell-free; details: pH 7.5, 24 h
[3] = Reduction in PICP levels in human cardiac fibroblasts incubated for 24 to 48 hrs by ELISA; type: functional

Row | SMILES | Drug metabolism [1] | Drug metabolism [2] | IC50 [3]
1 | CCCCCCCCC(=O)ON(C=O)[C@H](CC)[C@@H](CCCCC)C(=O)NCNC(=O)c1ccc(-c2cc(OCC)cc(P(=O)(O)O)c2)o1 | Metabolite_Detected |  | 
2 | CCCCC[C@@H](C(=O)NCNC(=O)c1ccc(-c2cc(OCC)cc(P(=O)(OCOC(=O)C(C)C)OCOC(=O)C(C)C)c2)o1)[C@@H](CC)N(O)C=O | Metabolite_Detected |  | 
3 | CCCCC[C@@H](C(=O)NCNC(=O)c1ccc(-c2ccc(C(=O)N[C@@H](CC(=O)O)C(=O)O)c(OCC(=O)O)c2)o1)[C@@H](CC)N(C=O)OC(=O)c1ccc(CN2CCOCC2)cc1C |  | Metabolite_Detected | < 3.98 µM
4 | CCCCC[C@@H](C(=O)NCNC(=O)c1ccc(-c2ccc(C(=O)N[C@@H](CC(=O)O)C(=O)O)c(OCC(=O)O)c2)o1)[C@@H](CC)N(C=O)OC(=O)c1ccccc1NC |  | Metabolite_Detected | < 3.98 µM
5 | CCCCC[C@@H](C(=O)NCNC(=O)c1ccc(-c2cc(OCC)cc(P(=O)(O)O)c2)o1)[C@@H](CC)N(C=O)OC(=O)c1ccc(N2CCOCC2)cc1C.N.N | Metabolite_Detected |  | < 3.98 µM
6 | CCCCC[C@@H](C(=O)NCNC(=O)c1ccc(-c2cc(OCC)cc(P(=O)(O)O)c2)o1)[C@@H](CC)N(C=O)OC(=O)c1ccc2c(c1)N(C)CCO2.N.N | Metabolite_Detected |  | < 3.98 µM
7 | CCCCC[C@@H](C(=O)NCNC(=O)c1ccc(-c2cc(OCC)cc(P(=O)(O)O)c2)o1)[C@@H](CC)N(C=O)OC(=O)c1ccc(F)cc1C(C)C | Metabolite_Detected |  | 
8 | CCCCC[C@@H](C(=O)NCNC(=O)c1ccc(-c2cc(OCC)cc(P(=O)(O)O)c2)o1)[C@@H](CC)N(C=O)OC(=O)c1ccc(N2CCCC2)cc1.N.N | Metabolite_Detected |  | < 3.98 µM
9 | CCCCC[C@@H](C(=O)NCNC(=O)c1ccc(-c2cc(OCC)cc(P(=O)(O)O)c2)o1)[C@@H](CC)N(C=O)OC(=O)c1ccc(CN2CCOCC2)cc1C | Metabolite_Detected |  | < 3.98 µM
10 | CCCCC[C@@H](C(=O)NCNC(=O)c1ccc(-c2ccc(C(=O)N[C@@H](CC(=O)O)C(=O)O)c(OCC(=O)O)c2)o1)[C@@H](CC)N(C=O)OC(=O)c1c(C)cccc1OC |  | Metabolite_Detected | < 3.98 µM
11 | CCCCC[C@@H](C(=O)NCNC(=O)c1ccc(-c2ccc(C(=O)N[C@@H](CC(=O)O)C(=O)O)c(OCC(=O)O)c2)o1)[C@@H](CC)N(C=O)OC(=O)c1c(C)ccnc1C |  | Metabolite_Detected | < 3.98 µM
12 | CCCCC[C@@H](C(=O)NCNC(=O)c1ccc(-c2cc(OCC)cc(P(=O)(O)OCc3oc(=O)oc3C)c2)o1)[C@@H](CC)N(O)C=O | Metabolite_Detected |  | 
13 | CCCCC[C@@H](C(=O)NCNC(=O)c1ccc(-c2ccc(C(=O)N[C@@H](CC(=O)O)C(=O)O)c(OCC(=O)O)c2)o1)[C@@H](CC)N(C=O)OC(=O)c1ccc(OC)cc1OC.N.N.N |  | Metabolite_Detected | < 3.98 µM
14 | CCCCC[C@@H](C(=O)NCNC(=O)c1ccc(-c2cc(OCC)cc(P(=O)(O)O)c2)o1)[C@@H](CC)N(C=O)OC(=O)c1ccccc1OC(=O)N(C)C | Metabolite_Detected |  | 
15 | CCCCC[C@@H](C(=O)NCNC(=O)c1ccc(-c2cc(OCC)cc(P(=O)(O)O)c2)o1)[C@@H](CC)N(C=O)OC(=O)c1c(C)cccc1OCOP(=O)(O)O.N.N.N.N | Metabolite_Detected |  | < 3.98 µM
16 | CCCCC[C@@H](C(=O)NCNC(=O)c1ccc(-c2cc(OCC)cc(P(=O)(O)O)c2)o1)[C@@H](CC)N(C=O)OC(=O)c1ccc(CN2CCOCC2)cc1 | Metabolite_Detected |  | < 3.98 µM
17 | CCCCC[C@@H](C(=O)NCNC(=O)c1ccc(-c2cc(OCC)cc(P(=O)(O)O)c2)o1)[C@@H](CC)N(C=O)OC(=O)NC(C)(C)c1ccccc1 | Metabolite_Detected |  | 
18 | CCCCC[C@@H](C(=O)NCNC(=O)c1ccc(-c2ccc(C(=O)N[C@@H](CC(=O)O)C(=O)O)c(OCC(=O)O)c2)o1)[C@@H](CC)N(C=O)OC(=O)c1ccncc1C.N.N.N |  | Metabolite_Detected | < 3.98 µM
19 | CCCCC[C@@H](C(=O)NCNC(=O)c1ccc(-c2ccc(C(=O)N[C@@H](CC(=O)O)C(=O)O)c(OCC(=O)O)c2)o1)[C@@H](CC)N(C=O)OC(=O)c1ccc(F)cc1C(C)C |  | Metabolite_Detected | < 3.98 µM
20 | CCCCC[C@@H](C(=O)NCNC(=O)c1ccc(-c2cc(OCC)cc(P(=O)(O)OCOC(=O)C(C)C)c2)o1)[C@@H](CC)N(O)C=O | Metabolite_Detected |  | 
21 | CCCCC[C@@H](C(=O)NCNC(=O)c1ccc(-c2ccc(C(=O)N[C@@H](CC(=O)O)C(=O)O)c(OCC(=O)O)c2)o1)[C@@H](CC)N(C=O)OC(=O)c1ccc(CN2CCOCC2)cc1 |  | Metabolite_Detected | < 3.98 µM
22 | CCCCC[C@@H](C(=O)NCNC(=O)c1ccc(-c2cc(OCC)cc(P(=O)(O)O)c2)o1)[C@@H](CC)N(C=O)OC(=O)c1ccc(-n2cccc2)cc1.N.N | Metabolite_Detected |  | 

Row | SMILES | Drug metabolism [1] | Drug metabolism [2] | IC50 [3]
23 | CCCCC[C@@H](C(=O)NCNC(=O)c1ccc(-c2ccc(C(=O)N[C@@H](CC(=O)O)C(=O)O)c(OCC(=O)O)c2)o1)[C@@H](CC)N(C=O)OC(=O)C(c1ccccc1)c1ccccc1 |  | Metabolite_Detected | < 3.98 µM
24 | CCCCC[C@@H](C(=O)NCNC(=O)c1ccc(-c2ccc(C(=O)N[C@@H](CC(=O)O)C(=O)O)c(OCC(=O)O)c2)o1)[C@@H](CC)N(C=O)OC(=O)c1ccc2ccccc2c1 |  | Metabolite_Detected | < 3.98 µM
25 | CCCCC[C@@H](C(=O)NCNC(=O)c1ccc(-c2cc(OCC)cc(P(=O)(O)O)c2)o1)[C@@H](CC)N(C=O)OC(=O)c1c(C)cccc1F | Metabolite_Detected |  | 
26 | CCCCC[C@@H](C(=O)NCNC(=O)c1ccc(-c2ccc(C(=O)N[C@@H](CC(=O)O)C(=O)O)c(OCC(=O)O)c2)o1)[C@@H](CC)N(C=O)OC(=O)NC(C)C |  | Metabolite_Detected | < 3.98 µM
27 | CCCCC[C@@H](C(=O)NCNC(=O)c1ccc(-c2ccc(C(=O)N[C@@H](CC(=O)O)C(=O)O)c(OCC(=O)O)c2)o1)[C@@H](CC)N(C=O)OC(=O)C1CC1C (stereo not given in full) |  | Metabolite_Detected | 
28 | CCCCC[C@@H](C(=O)NCNC(=O)c1ccc(-c2ccc(C(=O)N[C@@H](CC(=O)O)C(=O)O)c(OCC(=O)O)c2)o1)[C@@H](CC)N(C=O)OC(=O)c1cccc2ccccc12 |  | Metabolite_Detected | < 3.98 µM
29 | CCCCC[C@@H](C(=O)NCNC(=O)c1ccc(-c2ccc(C(=O)N[C@@H](CC(=O)O)C(=O)O)c(OCC(=O)O)c2)o1)[C@@H](CC)N(C=O)OP(=O)(N[C@@H](C)C(=O)OC)Oc1ccccc1.N.N.N (stereo not given in full) |  | Metabolite_Detected | 
30 | CCCCC[C@@H](C(=O)NCNC(=O)c1ccc(-c2ccc(C(=O)N[C@@H](CC(=O)O)C(=O)O)c(OCC(=O)O)c2)o1)[C@@H](CC)N(C=O)OC(=O)c1ccc(OC)c(OC)c1 |  | Metabolite_Detected | < 3.98 µM
31 | CCCCC[C@@H](C(=O)NCNC(=O)c1ccc(-c2ccc(C(=O)N[C@@H](CC(=O)O)C(=O)O)c(OCC(=O)O)c2)o1)[C@@H](CC)N(C=O)OC(=O)C(CCC)CCC |  | Metabolite_Detected | < 3.98 µM
32 | CCCCC[C@@H](C(=O)NCNC(=O)c1ccc(-c2ccc(C(=O)N[C@@H](CC(=O)O)C(=O)O)c(OCC(=O)O)c2)o1)[C@@H](CC)N(C=O)OC(=O)c1ccc(OC)cc1C(C)C |  | Metabolite_Detected | < 3.98 µM
33 | CCCCC[C@@H](C(=O)NCNC(=O)c1ccc(-c2ccc(C(=O)N[C@@H](CC(=O)O)C(=O)O)c(OCC(=O)O)c2)o1)[C@@H](CC)N(C=O)OC(=O)C1(C)CC1 |  | Metabolite_Detected | < 3.98 µM
34 | CCCCC[C@@H](C(=O)NCNC(=O)c1ccc(-c2cc(OCC)cc(P(=O)(O)O)c2)o1)[C@@H](CC)N(C=O)OC(=O)c1ccc(N2CCOCC2)cc1 | Metabolite_Detected |  | 
35 | CCCCC[C@@H](C(=O)NCNC(=O)c1ccc(-c2ccc(C(=O)N[C@@H](CC(=O)O)C(=O)O)c(OCC(=O)O)c2)o1)[C@@H](CC)N(C=O)OC(=O)c1ccc(OC)cc1 |  | Metabolite_Detected | 
36 | CCCCC[C@@H](C(=O)NCNC(=O)c1ccc(-c2ccc(C(=O)N[C@@H](CC(=O)O)C(=O)O)c(OCC(=O)O)c2)o1)[C@@H](CC)N(C=O)OC(=O)c1c(C)cccc1F |  | Metabolite_Detected | 
37 | CCCCC[C@@H](C(=O)NCNC(=O)c1ccc(-c2ccc(C(=O)N[C@@H](CC(=O)O)C(=O)O)c(OCC(=O)O)c2)o1)[C@@H](CC)N(C=O)OC(=O)c1ccccc1N |  | Metabolite_Detected | < 3.98 µM
38 | CCCCC[C@@H](C(=O)NCNC(=O)c1ccc(-c2ccc(C(=O)N[C@@H](CC(=O)O)C(=O)O)c(OCC(=O)O)c2)o1)[C@@H](CC)N(C=O)OC(=O)c1ccccc1C(C)C |  | Metabolite_Detected | < 3.98 µM
39 | CCCCC[C@@H](C(=O)NCNC(=O)c1ccc(-c2ccc(C(=O)N[C@@H](CC(=O)O)C(=O)O)c(OCC(=O)O)c2)o1)[C@@H](CC)N(C=O)OC(=O)NC(C)(C)c1ccccc1 |  | Metabolite_Detected | 
40 | CCCCC[C@@H](C(=O)NCNC(=O)c1ccc(-c2ccc(C(=O)N[C@@H](CC(=O)O)C(=O)O)c(OCC(=O)O)c2)o1)[C@@H](CC)N(C=O)OC(=O)NC(C)(C)C |  | Metabolite_Detected | < 3.98 µM
41 | CCCCC[C@@H](C(=O)NCNC(=O)c1ccc(-c2ccc(C(=O)N[C@@H](CC(=O)O)C(=O)O)c(OCC(=O)O)c2)o1)[C@@H](CC)N(C=O)OC(=O)N(C)C(=O)OC(C)(C)C |  | Metabolite_Detected | < 3.98 µM
42 | CCCCC[C@@H](C(=O)NCNC(=O)c1ccc(-c2cc(OCC)cc(P(=O)(O)O)c2)o1)[C@@H](CC)N(C=O)OC(=O)c1cccc(N2CCCC2)c1.N.N | Metabolite_Detected |  | 
43 | CCCCC[C@@H](C(=O)NCNC(=O)c1ccc(-c2ccc(C(=O)N[C@@H](CC(=O)O)C(=O)O)c(OCC(=O)O)c2)o1)[C@@H](CC)N(C=O)OC(=O)c1c(C)noc1C |  | Metabolite_Detected | < 3.98 µM
